The IC50 is the concentration that gives 50% inhibition.

One assay addresses PARG (Homo sapiens, UniProt Q86W56). Nature of the assay: Biochemical assay (PARG, TFMU-ADPr substrate).
Assay [1] concerns Human breast squamous carcinoma cells HCC1806. Nature of the assay: Cell function assay (In-Cell Western, PAR/pADPr after MMS). It counts as cell-based. The procedure:
2. Cell Function Assay (In-Cell Western)
• 1) Human breast squamous carcinoma cells HCC1806 (ATCC) were seeded to the 384-well plate (Corning, #3764) at 20,000 cells/well, incubated for 24 h in a CO2 (5%) incubator at 37° C. to allow for complete adherence of the cells; • 2) 120 nL compounds or DMSO were added to the 384-well plate by Echo 550 (LABCYTE, #550) (final concentrations of compounds: 30000 nM, 10000 nM, 3000 nM, 1000 nM, 300 nM, 100 nM, 30 nM, 10 nM, 3 nM, 1 nM, 0 nM), and then the cells were incubated for 1 h in a CO2 (5%) incubator at 37° C.; • 3) 40 nL MMS (methyl mesylate, Sigma, #129925)(final concentration: 0.5 mM) was added to the plate by Echo 550, and the cells were treated for 1 h in a CO2 (5%) incubator at 37° C.

[2] abbreviates: 4 nM PARG, 66.2 uM TFMU-ADPr, 3 min at room temperature.
Setting [3] is: HCC1806, In-Cell Western, MMS treatment, read-out: IC50 (nM) in cell function assay.
The mark [4] stands for this setting: HCC1806, compound 1 h then 0.5 mM MMS 1 h, PAR/pADPr antibody, In-Cell Western, read-out: IC50 (nM) in cell function assay.

Each structure is given as a SMILES string. Where two headings read alike, the source gives them in different places.

Chain of PARG (Q86W56 whole entry): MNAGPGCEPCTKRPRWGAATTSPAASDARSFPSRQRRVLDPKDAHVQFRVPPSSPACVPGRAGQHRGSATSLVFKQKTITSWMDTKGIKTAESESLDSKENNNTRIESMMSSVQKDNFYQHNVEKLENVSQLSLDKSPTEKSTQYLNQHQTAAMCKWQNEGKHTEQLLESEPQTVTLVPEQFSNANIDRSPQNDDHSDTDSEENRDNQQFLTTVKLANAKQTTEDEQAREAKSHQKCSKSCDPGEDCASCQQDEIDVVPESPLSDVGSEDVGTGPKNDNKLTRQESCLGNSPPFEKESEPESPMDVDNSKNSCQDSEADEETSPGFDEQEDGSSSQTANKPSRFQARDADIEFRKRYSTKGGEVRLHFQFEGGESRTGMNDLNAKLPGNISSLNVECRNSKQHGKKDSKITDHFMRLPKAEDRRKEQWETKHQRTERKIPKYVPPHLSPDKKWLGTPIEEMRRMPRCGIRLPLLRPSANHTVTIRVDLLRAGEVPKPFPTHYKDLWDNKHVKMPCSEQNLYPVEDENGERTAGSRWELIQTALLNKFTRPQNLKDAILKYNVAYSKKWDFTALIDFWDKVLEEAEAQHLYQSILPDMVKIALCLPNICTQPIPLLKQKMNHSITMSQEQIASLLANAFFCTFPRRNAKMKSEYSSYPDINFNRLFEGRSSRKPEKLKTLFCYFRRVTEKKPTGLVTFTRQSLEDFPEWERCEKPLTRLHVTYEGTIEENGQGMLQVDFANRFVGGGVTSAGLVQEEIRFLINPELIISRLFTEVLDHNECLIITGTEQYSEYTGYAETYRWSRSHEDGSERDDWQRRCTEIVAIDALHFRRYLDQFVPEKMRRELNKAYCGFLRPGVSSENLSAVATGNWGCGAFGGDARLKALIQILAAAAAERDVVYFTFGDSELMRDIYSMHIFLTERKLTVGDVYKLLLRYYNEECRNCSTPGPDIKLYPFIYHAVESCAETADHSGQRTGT

For `CC(C)C(=O)N1CCN(c2cc(S(=O)(=O)NC3(C#N)CC3)cn3c(-c4nnc(C(F)F)s4)ncc23)C[C@H]1C` [Example 74, (R)-N-(1-cyanocyclopropyl)-3-(5-(difluoromethyl)-1,3,4-thiadiazol-2-yl)-8-(4-isobutyryl-3-methylpiperazin-1-yl)imidazo[1,5-a]pyridine-6-sulfonamide], the IC50 against PARG (setting [2]) was under 100 nM; on PARG (PARG, TFMU-ADPr substrate) it was 6.61 nM; in assay [1] (setting [3]), 1.5 nM; in assay [1] (setting [4]), under 100 nM.

Turning to `CC(C)C(=O)N1CCN(c2cc(S(=O)(=O)NC3(C(F)F)CC3)cn3c(-c4nnc(C(F)F)s4)ncc23)CC1` [Example 33, 3-(5-(difluoromethyl)-1,3,4-thiadiazol-2-yl)-N-(1-(difluoromethyl)cyclopropyl)-8-(4-isobutyrylpiperazin-1-yl)imidazo[1,5-a]pyridine-6-sulfonamide], the IC50 against PARG (setting [2]) was under 100 nM; against PARG (PARG, TFMU-ADPr substrate) it was 6.52 nM; in assay [1] (setting [3]) it was 155 nM; in assay [1] (setting [4]), 100 to 500 nM.

Consider `[2H]C([2H])([2H])C1(NS(=O)(=O)c2cc(N3CCN(C(=O)C(C)C)CC3)c3cnc(-c4nnc(C(F)F)s4)n3c2)CC1` [Example 161, 3-(5-(difluoromethyl)-1,3,4-thiadiazol-2-yl)-8-(4-isobutyrylpiperazin-1-yl)-N-(1-(methyl-d3)cyclopropyl)imidazo[1,5-a]pyridine-6-sulfonamide], for which the IC50 was under 100 nM on PARG (setting [2]); 0.88 nM against PARG (PARG, TFMU-ADPr substrate); under 100 nM in assay [1] (HCC1806, 1 h, read-out: IC50 (nM) in cell function assay); 1.02 nM in assay [1] (HCC1806, read-out: IC50 (nM) in cell function assay).

With `CN1CC2(CCN(c3cc(S(=O)(=O)NC4(CF)CC4)cn4c(-c5nnc(C(F)F)s5)nnc34)CC2)CC1=O` [Example 112, 3-(5-(difluoromethyl)-1,3,4-thiadiazol-2-yl)-N-(1-(fluoromethyl)cyclopropyl)-8-(2-methyl-3-oxo-2,8-diazaspiro[4.5]decan-8-yl)-[1,2,4]triazolo[4,3-a]pyridine-6-sulfonamide], the IC50 against PARG (setting [2]) was under 100 nM; against PARG (PARG, TFMU-ADPr substrate), 3.67 nM; in assay [1] (setting [3]) it was 36.3 nM; in assay [1] (setting [4]), under 100 nM.

In the case of `C[C@@H]1CN(c2cc(S(=O)(=O)NC3(C)COC3)cn3c(-c4nnc(C(F)F)s4)ncc23)CCN1C(=O)C1(C)CC1` [Example 88, (R)-3-(5-(difluoromethyl)-1,3,4-thiadiazol-2-yl)-8-(3-methyl-4-(1-methylcyclopropane-1-carbonyl)piperazin-1-yl)-N-(3-methyloxetan-3-yl)imidazo[1,5-a]pyridine-6-sulfonamide], the IC50 is under 100 nM on PARG (setting [2]); 8.69 nM against PARG (PARG, TFMU-ADPr substrate); 6.77 nM in assay [1] (setting [3]); under 100 nM in assay [1] (setting [4]).

As for `CC(C)C(=O)N1CCN(c2cc(S(=O)(=O)NC3(C(F)F)COC3)cn3c(-c4nnc(C(F)F)s4)ncc23)CC1` [Example 149, 3-(5-(difluoromethyl)-1,3,4-thiadiazol-2-yl)-N-(3-(difluoromethyl)oxetan-3-yl)-8-(4-isobutyrylpiperazin-1-yl)imidazo[1,5-a]pyridine-6-sulfonamide], the half-inhibitory concentration (IC50) against PARG (setting [2]) was under 100 nM; on PARG (PARG, TFMU-ADPr substrate), 6.23 nM; in assay [1] (setting [3]) it was 57.7 nM; in assay [1] (setting [4]) it was under 100 nM.

For the compound `C[C@@H]1CN(c2cc(S(=O)(=O)NC3(C#N)CC3)cn3c(-c4nnc(C(F)F)s4)ncc23)CCN1C(=O)C1(F)CC1` [Example 77, (R)-N-(1-cyanocyclopropyl)-3-(5-(difluoromethyl)-1,3,4-thiadiazol-2-yl)-8-(4-(1-fluorocyclopropane-1-carbonyl)-3-methylpiperazin-1-yl)imidazo[1,5-a]pyridine-6-sulfonamide], the IC50 at PARG (setting [2]) was under 100 nM; against PARG (PARG, TFMU-ADPr substrate), 24 nM; in assay [1] (setting [3]) it was 14.8 nM; in assay [1] (setting [4]), under 100 nM.

As to `N#CC1(NS(=O)(=O)c2cc(N3CCC(O)CC3)c3cnc(-c4nnc(C(F)F)s4)n3c2)CC1` [Example 68, N-(1-cyanocyclopropyl)-3-(5-(difluoromethyl)-1,3,4-thiadiazol-2-yl)-8-(4-hydroxypiperidin-1-yl)imidazo[1,5-a]pyridine-6-sulfonamide], the IC50 at PARG (setting [2]) was under 100 nM; against PARG (PARG, TFMU-ADPr substrate) it was 25.1 nM; in assay [1] (setting [3]), 34.7 nM; in assay [1] (setting [4]) it was under 100 nM.

As to `C[C@H]1CN(c2cc(S(=O)(=O)NC3(C#N)CC3)cn3c(-c4nnc(C(F)F)s4)ncc23)CCN1C(=O)C1(C)CC1` [Example 86, (S)-N-(1-cyanocyclopropyl)-3-(5-(difluoromethyl)-1,3,4-thiadiazol-2-yl)-8-(3-methyl-4-(1-methylcyclopropane-1-carbonyl)piperazin-1-yl)imidazo[1,5-a]pyridine-6-sulfonamide], the IC50 against PARG (setting [2]) is under 100 nM; against PARG (PARG, TFMU-ADPr substrate), 16.6 nM; in assay [1] (setting [3]), 11.4 nM; in assay [1] (setting [4]) it was under 100 nM.

`CC(C)C(=O)N1CCN(c2cc(S(=O)(=O)NC3(C)COC3)cn3c(-c4nnc(C(F)F)s4)nnc23)CC1` [Example 103, 3-(5-(difluoromethyl)-1,3,4-thiadiazol-2-yl)-8-(4-isobutyrylpiperazin-1-yl)-N-(3-methyloxetan-3-yl)-[1,2,4]triazolo[4,3-a]pyridine-6-sulfonamide]: the IC50 is under 100 nM against PARG (setting [2]); 1.5 nM against PARG (PARG, TFMU-ADPr substrate); 33.6 nM in assay [1] (setting [3]); under 100 nM in assay [1] (setting [4]).

As for `O=S(=O)(NC1(CF)CC1)c1cc(N2CCC3(CC2)COC3)c2nnc(-c3nnc(C(F)F)s3)n2c1` [Example 104, 3-(5-(difluoromethyl)-1,3,4-thiadiazol-2-yl)-N-(1-(fluoromethyl)cyclopropyl)-8-(2-oxa-7-azaspiro[3.5]nonan-7-yl)-[1,2,4]triazolo[4,3-a]pyridine-6-sulfonamide], the 50% inhibitory concentration (IC50) is under 100 nM against PARG (setting [2]); 0.65 nM at PARG (PARG, TFMU-ADPr substrate); 9.76 nM in assay [1] (setting [3]); under 100 nM in assay [1] (setting [4]).

Consider `C[C@@H]1CN(c2cc(S(=O)(=O)NC3(C)CC3)cn3c(-c4nnc(C(F)F)s4)ncc23)CCN1C(=O)C1(C)CC1` [Example 71, (R)-3-(5-(difluoromethyl)-1,3,4-thiadiazol-2-yl)-8-(3-methyl-4-(1-methylcyclopropane-1-carbonyl)piperazin-1-yl)-N-(1-methylcyclopropyl)imidazo[1,5-a]pyridine-6-sulfonamide], for which the IC50 was under 100 nM against PARG (setting [2]); 1.32 nM against PARG (PARG, TFMU-ADPr substrate); 0.67 nM in assay [1] (setting [3]); under 100 nM in assay [1] (setting [4]).

As to `O=S(=O)(NC1(CF)CC1)c1cc(N2CC3(COCCO3)C2)c2nnc(-c3nnc(C(F)F)s3)n2c1` [Example 113, 3-(5-(difluoromethyl)-1,3,4-thiadiazol-2-yl)-N-(1-(fluoromethyl)cyclopropyl)-8-(5,8-dioxa-2-azaspiro[3.5]nonan-2-yl)-[1,2,4]triazolo[4,3-a]pyridine-6-sulfonamide], the IC50 at PARG (setting [2]) is under 100 nM; on PARG (PARG, TFMU-ADPr substrate) it was 5.2 nM; in assay [1] (setting [3]), 9 nM; in assay [1] (setting [4]) it was under 100 nM.

Regarding `CC(C)C(=O)N1CCN(c2cc(S(=O)(=O)NC3(C#N)CC3)cn3c(-c4nnc(C(F)F)s4)nc(Cl)c23)CC1` [Example 122, 1-chloro-N-(1-cyanocyclopropyl)-3-(5-(difluoromethyl)-1,3,4-thiadiazol-2-yl)-8-(4-isobutyrylpiperazin-1-yl)imidazo[1,5-a]pyridine-6-sulfonamide], the IC50 at PARG (setting [2]) was under 100 nM; on PARG (PARG, TFMU-ADPr substrate), 3.16 nM; in assay [1] (setting [3]), 4.58 nM; in assay [1] (setting [4]), under 100 nM.

Regarding `CC1(O)CC2(CCN(c3cc(S(=O)(=O)NC4(C#N)CC4)cn4c(-c5nnc(C(F)F)s5)ncc34)CC2)C1` [Example 53, N-(1-cyanocyclopropyl)-3-(5-(difluoromethyl)-1,3,4-thiadiazol-2-yl)-8-(2-hydroxy-2-methyl-7-azaspiro[3.5]nonan-7-yl)imidazo[1,5-a]pyridine-6-sulfonamide], the IC50 against PARG (setting [2]) is under 100 nM; against PARG (PARG, TFMU-ADPr substrate), 2.37 nM; in assay [1] (setting [3]), 145 nM; in assay [1] (setting [4]), 100 to 500 nM.

In the case of `CC1(C(=O)N2C3CC2CN(c2cc(S(=O)(=O)NC4(C#N)CC4)cn4c(-c5nnc(C(F)F)s5)ncc24)C3)CC1` [Example 87, N-(1-cyanocyclopropyl)-3-(5-(difluoromethyl)-1,3,4-thiadiazol-2-yl)-8-(6-(1-methylcyclopropane-1-carbonyl)-3,6-diazabicyclo[3.1.1]heptan-3-yl)imidazo[1,5-a]pyridine-6-sulfonamide], the IC50 against PARG (setting [2]) was under 100 nM; against PARG (PARG, TFMU-ADPr substrate) it was 7.24 nM; in assay [1] (setting [3]), 49.9 nM; in assay [1] (setting [4]), under 100 nM.

For the compound `CC(C)(F)C(=O)N1CCN(c2cc(S(=O)(=O)NC3(C#N)CC3)cn3c(-c4nnc(C(F)F)s4)ncc23)CC1` [Example 64, N-(1-cyanocyclopropyl)-3-(5-(difluoromethyl)-1,3,4-thiadiazol-2-yl)-8-(4-(2-fluoro-2-methylpropanoyl)piperazin-1-yl)imidazo[1,5-a]pyridine-6-sulfonamide], the IC50 was under 100 nM against PARG (setting [2]); 3.44 nM at PARG (PARG, TFMU-ADPr substrate); 6.92 nM in assay [1] (setting [3]); under 100 nM in assay [1] (setting [4]).

Values taken from US20260258035A1, “FIVE-MEMBERED AND SIX-MEMBERED NITROGEN-CONTAINING COMPOUND, AND INTERMEDIATE, PREPARATION METHOD AND USE THEREOF” (HANGZHOU SYNRX THERAPEUTICS BIOMEDICAL TECHNOLOGY CO., LTD., priority 2022, published 2026).
